From paper PMC9544090, “BioWF: A Naturally‐Fused, Di‐Domain Biocatalyst from Biotin Biosynthesis Displays an Unexpectedly Broad Substrate Scope” (Chembiochem, 2022) come the findings set out here.

The target in data set [1] is T1, CaBioWF (Corynebacterium amycolatum, UniProt E2MUP3).
T1 construct: full-length natural di-domain fusion; synthetic gene in pET-28a, E. coli BL21(DE3); His tag removed by TEV; homodimer by SEC
Briefly: UV-Vis titration, PLP ketoenamine peak at […] nm, hyperbolic fit. Format: binding.

For data set [2], the system named is O=C(O)CCCCCC(=O)O. As to the kind of experiment: purified protein. The conditions noted are these: BioW domain, CoASH 1 mM, ATP 1 mM, MgCl2 10 mM, pH 8, 30 °C.
The test system of data set [3] is CaBioWF. As to conditions: ATP 1 mM, CoASH 1 mM, MgCl2 5 mM, pH 8, 30 °C, 5 h; mutant mass 68567 Da printed, so tag probably kept.
CaBioWF, sequence (DOC9544090_1 entry or part of it F192Y): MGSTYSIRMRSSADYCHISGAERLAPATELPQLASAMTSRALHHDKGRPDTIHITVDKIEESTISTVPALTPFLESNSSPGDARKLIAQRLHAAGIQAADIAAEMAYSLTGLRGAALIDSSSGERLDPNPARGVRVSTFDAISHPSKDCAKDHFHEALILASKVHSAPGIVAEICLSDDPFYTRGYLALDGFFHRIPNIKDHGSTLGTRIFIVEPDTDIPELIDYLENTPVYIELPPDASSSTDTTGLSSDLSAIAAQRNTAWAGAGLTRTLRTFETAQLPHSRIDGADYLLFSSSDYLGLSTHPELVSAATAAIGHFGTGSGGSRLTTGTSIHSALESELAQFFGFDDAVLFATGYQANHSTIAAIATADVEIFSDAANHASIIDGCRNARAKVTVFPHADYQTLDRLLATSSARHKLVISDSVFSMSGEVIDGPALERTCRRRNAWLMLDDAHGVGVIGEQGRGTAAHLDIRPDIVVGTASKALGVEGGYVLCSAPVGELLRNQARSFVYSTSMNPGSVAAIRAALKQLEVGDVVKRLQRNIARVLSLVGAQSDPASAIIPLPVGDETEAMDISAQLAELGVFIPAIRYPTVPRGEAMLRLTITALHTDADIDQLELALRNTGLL

Broadly, the Kd is a measure of binding affinity in units of concentration. Read a high Kd as a looser complex. The Km is the substrate concentration at which the rate is half of its maximum. The term kcat denotes the number of substrate molecules converted per active site and unit of time at saturation.

In turn, `C[C@H](N)C(=O)O` [ʟ‐Ala] gave a Kd in data set [1] of 1.83 ± 0.25 mM.

Turning to “CaBioWF (Corynebacterium amycolatum SK46)”, in data set [2], the Km turned out to be 58.6 ± 3 µM and the kcat is 0.21 s⁻¹.

`NCC(=O)O` [Gly] displayed a Kd in data set [1] of 16.1 ± 1.95 mM.

As for `O=C(O)CCCCCC(=O)O` [DC7, pimelic acid], in data set [3], the “HPLC of acyl-CoA product, 260 nm” value was “acyl‐CoA product formation was only observed for the natural DC7 pimelic acid substrate”.
